# Test results: BindingDB's records for doi:10.1021/jm980063g (Research Triangle Institute, 1998)
# Test: The compound was tested for antagonist activity by selective inhibition of [35S]GTP-gamma-S, binding in Guinea pig caudate stimulated by […] (Opioid receptor delta 1)
row,Structure (SMILES),Ki [nM]
1,Cc1ccccc1/C=C/CN1CC[C@@](C)(c2cccc(O)c2)[C@@H](C)C1 [RTI-5989-25],0.355
2,"C[C@H]1CN(C/C=C/c2ccccc2)CC[C@@]1(C)c1cccc(O)c1 [3-[(3R,4R)-3,4-Dimethyl-1-((E)-3-phenyl-allyl)-piperidin-4-yl]-phenol]",1.5
